Assay results published in ChEMBL document CHEMBL4138292, “Metabolomics-Guided Discovery of Microginin Peptides from Cultures of the Cyanobacterium Microcystis aeruginosa” (J Nat Prod, 2018).

Each compound was assayed against Angiotensin-converting enzyme (Homo sapiens, UniProt P12821) (assay: Inhibition of ACE (unknown origin) using hippuryl-L-histidyl-L-leucine as substrate preincubated with substrate for 30 mins followed by enzyme addition measured after 30 mins by LC/MS analysis).
Angiotensin-converting enzyme, sequence (P12821 whole entry): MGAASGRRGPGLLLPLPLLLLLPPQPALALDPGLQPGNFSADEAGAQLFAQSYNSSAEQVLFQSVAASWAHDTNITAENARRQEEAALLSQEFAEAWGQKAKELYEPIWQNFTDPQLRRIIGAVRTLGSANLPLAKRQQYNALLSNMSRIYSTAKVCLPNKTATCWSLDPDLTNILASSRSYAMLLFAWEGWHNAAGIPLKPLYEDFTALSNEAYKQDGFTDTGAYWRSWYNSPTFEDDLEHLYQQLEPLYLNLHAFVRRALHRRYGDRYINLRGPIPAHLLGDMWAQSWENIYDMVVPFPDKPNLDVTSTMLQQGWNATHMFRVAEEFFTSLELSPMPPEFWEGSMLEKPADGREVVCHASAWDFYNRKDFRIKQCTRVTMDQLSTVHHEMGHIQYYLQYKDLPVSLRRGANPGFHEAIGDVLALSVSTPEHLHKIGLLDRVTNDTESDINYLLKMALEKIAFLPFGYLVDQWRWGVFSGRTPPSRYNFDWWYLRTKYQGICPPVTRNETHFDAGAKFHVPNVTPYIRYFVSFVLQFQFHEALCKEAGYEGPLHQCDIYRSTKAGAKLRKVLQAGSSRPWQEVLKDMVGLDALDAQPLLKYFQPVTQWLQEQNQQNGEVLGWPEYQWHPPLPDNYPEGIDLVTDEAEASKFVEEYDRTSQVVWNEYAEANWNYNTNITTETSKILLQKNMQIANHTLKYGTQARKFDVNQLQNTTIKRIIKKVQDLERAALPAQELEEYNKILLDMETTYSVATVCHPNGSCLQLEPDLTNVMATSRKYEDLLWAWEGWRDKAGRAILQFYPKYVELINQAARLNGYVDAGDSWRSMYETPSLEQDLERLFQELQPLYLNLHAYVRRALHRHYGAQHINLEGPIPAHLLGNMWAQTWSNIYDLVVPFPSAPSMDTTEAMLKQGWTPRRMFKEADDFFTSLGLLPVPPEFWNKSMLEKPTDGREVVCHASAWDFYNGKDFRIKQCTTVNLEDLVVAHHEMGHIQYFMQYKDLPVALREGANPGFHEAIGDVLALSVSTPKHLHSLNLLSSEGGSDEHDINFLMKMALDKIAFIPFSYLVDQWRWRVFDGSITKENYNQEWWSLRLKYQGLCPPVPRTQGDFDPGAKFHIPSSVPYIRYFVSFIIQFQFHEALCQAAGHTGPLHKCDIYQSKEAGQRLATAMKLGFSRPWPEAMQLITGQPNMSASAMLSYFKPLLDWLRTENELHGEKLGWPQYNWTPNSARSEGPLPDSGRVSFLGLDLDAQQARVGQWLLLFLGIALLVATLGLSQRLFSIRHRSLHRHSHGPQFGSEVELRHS

| IC50 | Structure (SMILES) |
| --- | --- |
| 31 µM | CCCCCCC[C@H](N)[C@H](O)C(=O)N(C)[C@@H](CC[S+](C)[O-])C(=O)N[C@@H](Cc1ccc(O)cc1)C(=O)O (stereo partly drawn) |
| 14 µM | O=C(O)CN(CCN(CC(=O)O)CC(=O)O)CC(=O)O [EDETIC ACID] |
| 460 µM | CCCCCCC[C@H](N)[C@H](O)C(=O)N[C@@H](C)C(=O)N[C@H](C(=O)O)C(C)C |
